Here are results for seven compounds from patent US20100227401A1, “MEDIA AND PROCESSES FOR THE EX VIVO PRODUCTION OF MEGAKARYOCYTES FROM HUMAN CD34+ CELLS” (FOOD INDUSTRY RESEARCH AND DEVELOPMENT INSTITUTE, priority 2003, published 2010).

The subject of data set [1] is serum-free expanded CD34^+ cells. Nature of the data set: Ex vivo Mk induction from serum-free expanded CD34+ cells, 1-week induction, TNC count and Mk count (CD41a+CD61+). The class given is cell-based, human. The note with it: preliminary screening of serum substitutes (data not shown). As for the experimental part:
Each experiment was repeated at least four times. […] (1978), Statistics for Experimenters: An Introduction to Design, Data Analysis, and Model Building, Wiley, New York). In addition, the statistical significance was determined by an F-test, and the significance of the regression coefficient was analyzed by a t-test. […] After cultivation for 1 week, the cells were collected and subjected to the TNC count as described above and a megakaryocyte count (Mk count) so as to evaluate the ex vivo megakaryocytopoietic effects of the tested serum substitutes and cytokines. The Mk count was conducted by labeling the collected cells with CD41a-FITC and CD61-PE and analyzed according to the operating procedure described in the following section, entitled “4. […] The incubation was terminated by washing three times with 1 mL FACS buffer. Optionally, the first antibody-labeled cells were further incubated with a second antibody conjugated with PE or FITC in the same manner. After washing with FACS buffer, the labeled cells were resuspended in 1 mL FACS buffer and analyzed on a FACSCalibur analyzer (Becton-Dickinson, NJ, USA). The data were analyzed by CellQuest software. A replicate sample incubated with FITC- or PE-conjugated mouse IgG1 was used as an isotype control for specificity. […] SF-Mk as established in Example 1, IMDM+10% FBS, IMDM+2% FBS, […]-VIVO 10, X-VIVO 15, X-VIVO 20,[…], DMEM, RPMI 1640, α-MEM, BME medium, […] medium, and Medium 199, respectively. IMDM+10% FBS, IMDM+2% FBS, […]-VIVO 10, X-VIVO 15, X-VIVO 20,[…], DMEM, RPMI 1640, α-MEM, BME medium, […] medium and Medium 199 were respectively supplemented with the cytokine cocktail (CC) as screened in Example 1. […] After 1-week induction, the Mk number of each group was calculated. […] IMDM supplemented with a serum substitute consisting of 4.9 g/L BSA, 2.72 μg/mL insulin, and 80 μg/mL transferrin (based on the applicants' previous study, unpublished data) and the reference cytokine cocktail as previously reported in Te-Wei Chen et al. (2009), supra; and • (3) FBS group: IMDM supplemented with 10% FBS and the reference cytokine cocktail.

Data set [2] relates to hematopoietic progenitor cells (HPCs). Conditions: cited from earlier work.
In a further data set the test system is CD34^+-selected cells. Conditions: PMP 200 ng/mL; TPO 10 ng/mL, IL-3 10 ng/mL; cited from earlier work.
[3] abbreviates: mpIL added to growth factor cocktail.

As to `OCCS` [Step 2-ME, 2-mercaptoethanol], in data set [1], the “effect on ex vivo megakaryocytopoiesis” value is “no effect”.
On the same count and under the same terms, the value for `CC(=O)C(=O)[O-].[Na+]` [sodium pyruvate] was “no effect”.
In the case of transferrin, the “effect on ex vivo megakaryocytopoiesis” value in data set [1] is “significantly positive effects”.
Consider mpIL: recombinant mpl ligand, for which, in data set [2] (setting [3]), the Mk purity level is 80% and the “final yield of Mks” value is recorded as 4×10^5. The cell number in data set [2] (mpIL alone) is on record as 1.5×10^5 cells.
promegapoietin [PMP]: in the data set on CD34^+-selected cells, the megakaryocytopoietic activity entry is reported as “comparable to that achieved with TPO plus IL-3”.
Take insulin: the “effect on ex vivo megakaryocytopoiesis” value in data set [1] was “significantly positive effects”.
Turning to `NC(=O)CC[C@H](N)C(=O)O` [L-glutamine], the “effect on ex vivo megakaryocytopoiesis” value in data set [1] is given as “no effect”.
